≈ marks a conversion by molar mass, not a printed value.
How the values were obtained:
klebsiella pneumonia = assay: In vitro antimicrobial activity, agar dilution method; format: cell-based; details: Klebsiella pneumoniae, klebsiella pneumonia clinical isolates
Description: (§1) Bacterial strains for test: All the bacterial strains are obtained from clinic/hospital and purchased from public organizations. (1) Gram-positive bacteria: methicillin-sensitive Staphylococcus aureus (MSSA), methicillin-resistant Staphylococcus aureus (MRSA), methicillin-resistant Staphylococcus epidermidis (MRSE), methicillin-sensitive Staphylococcus epidermidis (MSSE), penicillin-sensitive Streptococcus pneumoniae (PSSP), penicillin-resistant Streptococcus pneumoniae (PRSP); (2) Gram-negative bacteria: Escherichia coli (products from ESBLs), Klebsiella pneumonia, Pseudomonas aeruginosa. Drugs to be tested: Compound A-E, self-made as described above; Control drugs: Meropenem (Meropenem for injection), Ertapenem (Ertapenem for injection), commercially available. Experimental Method: the agar dilution method, by reference to Methodology of Pharmacological Experiment (XU Shuyun et al, published by the Peoples Medical Publishing House, 1st Edition, August, 1982; 3rd Edition, 5th printing, January 2002, p 1659-1660).

[1] = system: methicillin-resistant Staphylococcus aureus (MRSA); assay: as above; format: cell-based; details: MRSA clinical isolates
Description: as §1

[2] = system: methicillin-resistant Staphylococcus epidermidis (MRSE); assay: as above; format: cell-based; details: MRSE clinical isolates
Description: as §1

[3] = system: methicillin-sensitive Staphylococcus aureus (MSSA); assay: as above; format: cell-based; details: MSSA clinical isolates
Description: as §1

[4] = system: methicillin-sensitive Staphylococcus epidermidis (MSSE); assay: as above; format: cell-based; details: MSSE clinical isolates
Description: as §1

[5] = system: penicillin-resistant Streptococcus pneumoniae (PRSP); assay: as above; format: cell-based; details: PRSP clinical isolates
Description: as §1

[6] = system: penicillin-sensitive Streptococcus pneumoniae (PSSP); assay: as above; format: cell-based; details: PSSP clinical isolates
Description: as §1

pseudomonas aeruginosa = assay: as above; format: cell-based; details: pseudomonas aeruginosa clinical isolates
Description: as §1

proteus mirabilis = assay: as above; format: cell-based; details: proteus mirabilis clinical isolates
serratia marcescens = assay: as above; format: cell-based; details: serratia marcescens clinical isolates
[7] = In vivo pharmacokinetics of SD rat
Procedure: Drugs to be Tested and Preparation Thereof
Drugs to be tested: partial compounds of the present invention, self-synthesized as described above.
Control drugs: Ertapenem (Ertapenem for Injection), commercially available.
Internal standard substance: Warfarin, white powder, purity: 99%, batchnumber: 0072-8501, provided by Shanghai Institute for Drug Control.
Drug formulation: being dissolved in physiological saline to make the final concentration to be 5 mg/mL for intravenous injection and formulated before administration.
Test animal: SD male rats, weight: 200˜250 g, purchased from SHANGHAI SLAC LABORATORY ANIMAL CO. LTD.
Administration of the drugs to be tested: The SD male rats were randomly divided into five groups, 3 in each group, administrated by intravenous injection in an amount of 10 mg/kg; and weighted before administration.
Collection of Samples: Zero time was marked before administration; 0.5 mL of blood was respectively sampled from orbit venous plexus at 5 min, 15 min, 30 min, 45 min, 1 h, 2 h, 4 h, 6 h, 8 h, 24 h after administration into heparinized centrifuge tubes. The samples were centrifuged for 6 minutes at 8000 rpm and the supernatant plasma was separated. The plasma was freezed at −20° C. for LC-MS/MS analysis. Establishing liquid chromatography-mass spectrometry (LC-MS) methodology: Chromatographic conditions: chromatographic column. Gemini C6-Phenyl (50 mm×4.6 mm, 5 μm), mobile phase: 0.1% of formic acid-water-acetonitrile (5:35:60, v/v/v); flow rate: 1 mL/min; column temperature: 35-40° C., injection volume: 5 μL; split ratio: 1/5. Mass spectrometer conditions: scanning pattern: cation multiple reactions monitoring (MRM); ion source: electrospray ionization (ESI); Nebulize gas: 8 L/min; Curtain gas: 8 L/min; Collision gas: 4 L/min; Ionspray voltage: 4500 v; Temperature: 400° C./500° C. Preparation of the Standard Curve and Quality-Control Sample: a Suitable Amount of the drug to be tested was weighted precisely and then formulated into a stock solution (2.6 mg/mL) with ultrapure water. The stock solution was diluted with methanol to obtain a series of working solutions in a concentration of 25000, 5000, 2500, 500, 250 and 50 ng/mL respectively. 100 μL of plasma samples were respectively added into 20 μL of said working solutions to obtain the calibrated solutions in a concentration of […]. By the same method, the quality-controlled sample solutions in a concentration of 4000, 800 and 20 ng/mL can be prepared. A standard curve was obtained by chromatographic analysis of the sample. Methods for handling of sample: 20 μL of acetonitrile and 200 μL (200 ng/mL) Warfarin in acetonitrile were added into 100 μL of plasma sample, then spun for 1 minute and centrifuged for 5 minutes at 15000 rpm. 100 μL of the supernatant was taken, where 3 μL was used for the LC/MS/MS analysis. Results and Discussions: Concentration to be administered: The formulated drugs were determined using HPLC, and compared with the standard to obtain that the accuracy of the concentration of the drug solution administered by intravenous injection was 103.2%. Data analysis: The drug concentration in plasma would be considered as zero if under detectable limit (10 ng/mL). The pharmacokinetics parameters were calculated by the non-compartment model using Winnonlin Professional 5.2 pharmacokinetics software. Pharmacokinetics: The pharmacokinetics parameters and drug-time curve were obtained by measuring the plasma drug concentration at different time points. The half lives (t1/2) of the tested compounds were summarized in Table 3, wherein the half lives of the compounds of the present invention in rats (intravenous injection) were longer than those of Meropenem and Ertapenem.

[8] = SD male rats, intravenous injection 10 mg/kg, plasma, X ± SD

Compound | MIC90 (klebsiella pneumonia) [µg/mL] | MIC90 [1] [µg/mL] | MIC90 [2] [µg/mL] | MIC90 [3] [µg/mL] | MIC90 [4] [µg/mL] | MIC90 [5] [µg/mL] | MIC90 [6] [µg/mL] | MIC90 (pseudomonas aeruginosa) [µg/mL] | MIC90 (proteus mirabilis) [µg/mL] | MIC90 (serratia marcescens) [µg/mL] | Half lives t1/2 [7, 8] [min] | Half lives t1/2 ([7]; rat, in vivo, iv, 10 mg/kg) [min]
C[C@@H](O)[C@H]1C(=O)N2C(C(=O)O)=C(S[C@@H]3CN[C@H](C(=O)NCc4ccco4)C3)[C@H](C)[C@H]12 [Compound A, (4R,5S,6S)-3-[(2S,4S)-2-formyl[[furan-2-ylmethyl]amino]pyrrolidine-4-yl]thio-6-[(1R)-1-hydroxyethyl]-4-methyl-7-oxo-1-aza-bicyclo[3.2.0] hept-2-ene-2-carboxylic acid] | 0.125 (≈ 0.287 µM) | 32 (≈ 73.5 µM) | 1 (≈ 2.3 µM) | 0.125 (≈ 0.287 µM) | 0.125 (≈ 0.287 µM) | 0.5 (≈ 1.15 µM) | 0.008 (≈ 0.0184 µM) | 64 (≈ 147 µM) | 0.063 (≈ 0.145 µM) | 0.063 (≈ 0.145 µM) | 21 ± 2.4 | 
C[C@@H](O)[C@H]1C(=O)N2C(C(=O)O)=C(S[C@@H]3CN[C@H](C(=O)NCc4ccc(C(=O)O)o4)C3)[C@H](C)[C@H]12 [Compound B, (4R,5S,6S)-3-[(2S,4S)-2-formyl[[furan-2-carboxy-5-ylmethyl]amino]-pyrrolidine-4-yl]thio-6-[(1R)-1-hydroxyethyl]-4-methyl-7-oxo-1-aza-bicyclo[3.2.0]hept-2-ene-2-carboxylic acid] | 0.5 (≈ 1.04 µM) | 64 (≈ 133 µM) | 2 (≈ 4.17 µM) | 0.25 (≈ 0.521 µM) | 0.25 (≈ 0.521 µM) | 1 (≈ 2.09 µM) | 0.008 (≈ 0.0167 µM) | 32 (≈ 66.7 µM) | 0.063 (≈ 0.131 µM) | 0.063 (≈ 0.131 µM) | 43.2 ± 1.8 | 
C[C@@H](O)[C@H]1C(=O)N2C(C(=O)O)=C(S[C@@H]3CN[C@H](C(=O)NCc4ccc(CC(=O)O)o4)C3)[C@H](C)[C@H]12 [Compound C, (4R,5S,6S)-3-[(2S,4S)-2-formyl[[furan-2-carboxymethyl-5-ylmethyl]amino]pyrrolidine-4-yl]thio-6-[(1R)-1-hydroxyethyl]-4-methyl-7-oxo-1-aza-bicyclo[3.2.0]hept-2-ene-2-carboxylic acid] | 0.5 (≈ 1.01 µM) | 64 (≈ 130 µM) | 1 (≈ 2.03 µM) | 0.25 (≈ 0.507 µM) | 0.25 (≈ 0.507 µM) | 0.5 (≈ 1.01 µM) | 0.016 (≈ 0.0324 µM) | 32 (≈ 64.8 µM) | 0.063 (≈ 0.128 µM) | 0.063 (≈ 0.128 µM) | 46.8 ± 1.8 | 
C[C@@H](O)[C@H]1C(=O)N2C(C(=O)O)=C(S[C@@H]3CN[C@H](C(=O)NCc4cc(C(=O)O)co4)C3)[C@H](C)[C@H]12 [Compound D, (4R,5S,6S)-3-[(2S,4S)-2-formyl[[furan-3-carboxy-5-ylmethyl]amino]-pyrrolidine-4-yl]-thio-6-[(1R)-1-hydroxyethyl]-4-methyl-7-oxo-1-aza-bicyclo[3.2.0]hept-2-ene-2-carboxylic acid] | 0.125 (≈ 0.261 µM) | 32 (≈ 66.7 µM) | 2 (≈ 4.17 µM) | 0.25 (≈ 0.521 µM) | 0.125 (≈ 0.261 µM) | 1 (≈ 2.09 µM) | 0.008 (≈ 0.0167 µM) | 64 (≈ 133 µM) | 0.063 (≈ 0.131 µM) | 0.063 (≈ 0.131 µM) | 19.8 ± 1.2 | 
C[C@@H](O)[C@H]1C(=O)N2C(C(=O)O)=C(S[C@@H]3CN[C@H](C(=O)NCc4ccc(S(N)(=O)=O)o4)C3)[C@H](C)[C@H]12 [Compound E, (4R,5S,6S)-3-[(2S,4S)-2-formyl[[furan-2-sulphonylamino-5-ylmethyl]amino]-pyrrolidine-4-yl]thio-6-[(1R)-1-hydroxyethyl]-4-methyl-7-oxo-1-aza-bicyclo[3.2.0]hept-2-ene-2-carboxylic acid] | 0.5 (≈ 0.972 µM) | 64 (≈ 124 µM) | 2 (≈ 3.89 µM) | 0.25 (≈ 0.486 µM) | 0.125 (≈ 0.243 µM) | 2 (≈ 3.89 µM) | 0.008 (≈ 0.0155 µM) | 32 (≈ 62.2 µM) | 0.063 (≈ 0.122 µM) | 0.063 (≈ 0.122 µM) | 41.4 ± 2.4 | 
C[C@@H](O)[C@H]1C(=O)N2C(C(=O)O)=C(S[C@@H]3CN[C@H](C(=O)Nc4cccc(C(=O)O)c4)C3)[C@H](C)[C@H]12 [Ertapenem, reference compound] | 1 (≈ 2.1 µM) | > 64 | 2 (≈ 4.21 µM) | 0.5 (≈ 1.05 µM) | 0.25 (≈ 0.526 µM) | 2 (≈ 4.21 µM) | 0.016 (≈ 0.0336 µM) | > 64 | 0.063 (≈ 0.132 µM) | 0.125 (≈ 0.263 µM) |  | 36 ± 1.8
C[C@@H](O)[C@H]1C(=O)N2C(C(=O)O)=C(S[C@@H]3CN[C@H](C(=O)N(C)C)C3)[C@H](C)[C@H]12 [Meropenem, reference compound] | 0.5 (≈ 1.3 µM) | 64 (≈ 167 µM) | 2 (≈ 5.22 µM) | 0.25 (≈ 0.652 µM) | 0.125 (≈ 0.326 µM) | 1 (≈ 2.61 µM) | 0.008 (≈ 0.0209 µM) | 32 (≈ 83.4 µM) | 0.063 (≈ 0.164 µM) | 0.063 (≈ 0.164 µM) | 6.6 ± 1.2 | 

Source: US8293895B2, “Carbapenem derivatives” (KBP Biosciences Co., Ltd., priority 2007, dated 2012)
